In brackets after ≈: the same amount, converted by molar mass.
Key:
Format in all cases: functional
Escherichia coli [1] = experiment: Antibacterial activity against Escherichia coli DH10B harboring plasmid BCSK carrying beta-lactamase CMY-2 gene by Etest method; conditions: K-12 DH10B
Escherichia coli [2] = experiment: Antibacterial activity against Escherichia coli 1285 harboring beta-lactamase CMY-33 gene by Etest method
Escherichia coli [3] = experiment: Antibacterial activity against Escherichia coli 34943 harboring beta-lactamase CMY-44 gene by Etest method
Escherichia coli [4] = experiment: Antibacterial activity against Escherichia coli DH10B harboring plasmid BCSK carrying beta-lactamase CMY-44 gene by Etest method; conditions: K-12 DH10B
Escherichia coli [5] = experiment: Antibacterial activity against Escherichia coli DH10B harboring plasmid BCSK carrying beta-lactamase CMY-33 gene by Etest method; conditions: K-12 DH10B
Escherichia coli [6] = experiment: Antibacterial activity against Escherichia coli YD006 harboring beta-lactamase CMY-33 gene by Etest method
Escherichia coli [7] = experiment: Antibacterial activity against Escherichia coli DH10B harboring plasmid BCSK by Etest method; conditions: K-12 DH10B

Q: What does the source list for `C[C@H]1[C@H](NC(=O)/C(=N\OC(C)(C)C(=O)O)c2csc(N)n2)C(=O)N1S(=O)(=O)O` [AZTREONAM]?
A: MIC (Escherichia coli [1]): 8 µg/mL (≈ 18.4 µM); MIC (Escherichia coli [2]): 64 µg/mL (≈ 147 µM); MIC (Escherichia coli [3]): 24 µg/mL (≈ 55.1 µM); MIC (Escherichia coli [4]): 4 µg/mL (≈ 9.19 µM); MIC (Escherichia coli [5]): 16 µg/mL (≈ 36.7 µM); MIC (Escherichia coli [6]): 6 µg/mL (≈ 13.8 µM)

Q: Which results are given for `CCN1CCN(C(=O)N[C@@H](C(=O)N[C@@H]2C(=O)N3[C@@H]2SC(C)(C)[C@@H]3C(=O)O)c2ccccc2)C(=O)C1=O` [PIPERACILLIN]?
A: MIC (Escherichia coli [1]): 128 µg/mL (≈ 247 µM); MIC (Escherichia coli [2]): > 256 µg/mL; MIC (Escherichia coli [3]): > 256 µg/mL; MIC (Escherichia coli [4]): 32 µg/mL (≈ 61.8 µM); MIC (Escherichia coli [5]): 64 µg/mL (≈ 124 µM); MIC (Escherichia coli [7]): 2 µg/mL (≈ 3.86 µM); MIC (Escherichia coli [6]): 12 µg/mL (≈ 23.2 µM)

Q: What does the source list for `C[C@@H](O)[C@H]1C(=O)N2C(C(=O)O)=C(S[C@@H]3CN[C@H](C(=O)Nc4cccc(C(=O)O)c4)C3)[C@H](C)[C@H]12` [ERTAPENEM]?
A: MIC (Escherichia coli [1]): 0.094 µg/mL (≈ 0.198 µM); MIC (Escherichia coli [2]): 1 µg/mL (≈ 2.1 µM); MIC (Escherichia coli [3]): 4 µg/mL (≈ 8.41 µM); MIC (Escherichia coli [4]): 0.064 µg/mL (≈ 0.135 µM); MIC (Escherichia coli [5]): 0.032 µg/mL (≈ 0.0673 µM); MIC (Escherichia coli [7]): 0.012 µg/mL (≈ 0.0252 µM); MIC (Escherichia coli [6]): 0.064 µg/mL (≈ 0.135 µM)

Q: What does the source list for `CC(C)(O/N=C(\C(=O)N[C@@H]1C(=O)N2C(C(=O)[O-])=C(C[n+]3ccccc3)CS[C@H]12)c1csc(N)n1)C(=O)O` [CEFTAZIDIME]?
A: MIC (Escherichia coli [1]): > 256 µg/mL; MIC (Escherichia coli [2]): > 256 µg/mL; MIC (Escherichia coli [3]): > 256 µg/mL; MIC (Escherichia coli [4]): > 256 µg/mL; MIC (Escherichia coli [5]): > 256 µg/mL; MIC (Escherichia coli [7]): 0.5 µg/mL (≈ 0.915 µM); MIC (Escherichia coli [6]): > 256 µg/mL

Q: With `CO/N=C(\C(=O)N[C@@H]1C(=O)N2C(C(=O)O)=C(COC(N)=O)CS[C@H]12)c1ccco1` [CEFUROXIME] as the molecule, how does the MIC (Escherichia coli [1]) read?
A: > 256 µg/mL

Q: And the MIC (Escherichia coli [2])?
A: > 256 µg/mL

Q: What about the MIC (Escherichia coli [3]) of the same molecule?
A: > 256 µg/mL

Q: And the MIC (Escherichia coli [4])?
A: 64 µg/mL (≈ 151 µM)

Q: What about the MIC (Escherichia coli [5]) of the same molecule?
A: 128 µg/mL (≈ 302 µM)

Q: What about the MIC (Escherichia coli [7]) of the same molecule?
A: 6 µg/mL (≈ 14.1 µM)

Q: What about the MIC (Escherichia coli [6]) of the same molecule?
A: 96 µg/mL (≈ 226 µM)

Q: For `CC1(C)S[C@@H]2[C@H](NC(=O)[C@H](N)c3ccccc3)C(=O)N2[C@H]1C(=O)O` [AMPICILLIN], which MIC (Escherichia coli [1]) is on record?
A: > 256 µg/mL

Q: What about the MIC (Escherichia coli [2]) of the same molecule?
A: > 256 µg/mL

Q: And the MIC (Escherichia coli [3])?
A: > 256 µg/mL

Q: And the MIC (Escherichia coli [4])?
A: > 256 µg/mL

Q: And the MIC (Escherichia coli [5])?
A: > 256 µg/mL

Q: And the MIC (Escherichia coli [7])?
A: 3 µg/mL (≈ 8.59 µM)

Q: What about the MIC (Escherichia coli [6]) of the same molecule?
A: 128 µg/mL (≈ 366 µM)

Q: How did the MIC (Escherichia coli [1]) turn out when `CO[C@@]1(NC(=O)Cc2cccs2)C(=O)N2C(C(=O)O)=C(COC(N)=O)CS[C@@H]21` [CEFOXITIN] was run?
A: > 256 µg/mL

Q: And the MIC (Escherichia coli [2])?
A: > 256 µg/mL

Q: And the MIC (Escherichia coli [3])?
A: > 256 µg/mL

Q: What about the MIC (Escherichia coli [4]) of the same molecule?
A: 32 µg/mL (≈ 74.9 µM)

Q: And the MIC (Escherichia coli [5])?
A: 24 µg/mL (≈ 56.1 µM)

Q: And the MIC (Escherichia coli [7])?
A: 6 µg/mL (≈ 14 µM)

Q: And the MIC (Escherichia coli [6])?
A: 24 µg/mL (≈ 56.1 µM)

Q: `CO/N=C(\C(=O)N[C@@H]1C(=O)N2C(C(=O)O)=C(COC(C)=O)CS[C@H]12)c1csc(N)n1` [CEFOTAXIME] was tested. Which MIC (Escherichia coli [1]) did it give?
A: 16 µg/mL (≈ 35.1 µM)

Q: And the MIC (Escherichia coli [2])?
A: > 256 µg/mL

Q: And the MIC (Escherichia coli [3])?
A: 32 µg/mL (≈ 70.3 µM)

Q: And the MIC (Escherichia coli [4])?
A: 8 µg/mL (≈ 17.6 µM)

Q: What about the MIC (Escherichia coli [5]) of the same molecule?
A: 12 µg/mL (≈ 26.3 µM)

Q: And the MIC (Escherichia coli [7])?
A: 0.064 µg/mL (≈ 0.141 µM)

Q: What about the MIC (Escherichia coli [6]) of the same molecule?
A: 8 µg/mL (≈ 17.6 µM)

Q: Which MIC (Escherichia coli [1]) does the source give for `CO/N=C(\C(=O)N[C@@H]1C(=O)N2C(C(=O)[O-])=C(C[N+]3(C)CCCC3)CS[C@H]12)c1csc(N)n1` [CEFEPIME] here?
A: 0.25 µg/mL (≈ 0.52 µM)

Q: What about the MIC (Escherichia coli [2]) of the same molecule?
A: 96 µg/mL (≈ 200 µM)

Q: And the MIC (Escherichia coli [3])?
A: 32 µg/mL (≈ 66.6 µM)

Q: And the MIC (Escherichia coli [4])?
A: 3 µg/mL (≈ 6.24 µM)

Q: And the MIC (Escherichia coli [5])?
A: 6 µg/mL (≈ 12.5 µM)

Q: What about the MIC (Escherichia coli [7]) of the same molecule?
A: 0.032 µg/mL (≈ 0.0666 µM)

Q: What about the MIC (Escherichia coli [6]) of the same molecule?
A: 6 µg/mL (≈ 12.5 µM)
